Experimental data published in US5760241A, “Thiol derivatives with metallopeptidase inhibitory activity” (priority 1996, dated 1998).
Where a name gives a salt, the structure may show the parent alone.

Legend:
[1] = biological target: T1, ACE (purified by lung rabbit, EC 3.4.15.1) (Oryctolagus cuniculus, UniProt P12822); test: In vitro ACE-inhibitory activity (FAPGG substrate, spectrophotometric); type: biochemical; conditions: 37° C.; FAPGG 0.8 mM
T1 construct: purchased SIGMA; host or cells: rabbit lung
T1 sequence (P12822 34-1310): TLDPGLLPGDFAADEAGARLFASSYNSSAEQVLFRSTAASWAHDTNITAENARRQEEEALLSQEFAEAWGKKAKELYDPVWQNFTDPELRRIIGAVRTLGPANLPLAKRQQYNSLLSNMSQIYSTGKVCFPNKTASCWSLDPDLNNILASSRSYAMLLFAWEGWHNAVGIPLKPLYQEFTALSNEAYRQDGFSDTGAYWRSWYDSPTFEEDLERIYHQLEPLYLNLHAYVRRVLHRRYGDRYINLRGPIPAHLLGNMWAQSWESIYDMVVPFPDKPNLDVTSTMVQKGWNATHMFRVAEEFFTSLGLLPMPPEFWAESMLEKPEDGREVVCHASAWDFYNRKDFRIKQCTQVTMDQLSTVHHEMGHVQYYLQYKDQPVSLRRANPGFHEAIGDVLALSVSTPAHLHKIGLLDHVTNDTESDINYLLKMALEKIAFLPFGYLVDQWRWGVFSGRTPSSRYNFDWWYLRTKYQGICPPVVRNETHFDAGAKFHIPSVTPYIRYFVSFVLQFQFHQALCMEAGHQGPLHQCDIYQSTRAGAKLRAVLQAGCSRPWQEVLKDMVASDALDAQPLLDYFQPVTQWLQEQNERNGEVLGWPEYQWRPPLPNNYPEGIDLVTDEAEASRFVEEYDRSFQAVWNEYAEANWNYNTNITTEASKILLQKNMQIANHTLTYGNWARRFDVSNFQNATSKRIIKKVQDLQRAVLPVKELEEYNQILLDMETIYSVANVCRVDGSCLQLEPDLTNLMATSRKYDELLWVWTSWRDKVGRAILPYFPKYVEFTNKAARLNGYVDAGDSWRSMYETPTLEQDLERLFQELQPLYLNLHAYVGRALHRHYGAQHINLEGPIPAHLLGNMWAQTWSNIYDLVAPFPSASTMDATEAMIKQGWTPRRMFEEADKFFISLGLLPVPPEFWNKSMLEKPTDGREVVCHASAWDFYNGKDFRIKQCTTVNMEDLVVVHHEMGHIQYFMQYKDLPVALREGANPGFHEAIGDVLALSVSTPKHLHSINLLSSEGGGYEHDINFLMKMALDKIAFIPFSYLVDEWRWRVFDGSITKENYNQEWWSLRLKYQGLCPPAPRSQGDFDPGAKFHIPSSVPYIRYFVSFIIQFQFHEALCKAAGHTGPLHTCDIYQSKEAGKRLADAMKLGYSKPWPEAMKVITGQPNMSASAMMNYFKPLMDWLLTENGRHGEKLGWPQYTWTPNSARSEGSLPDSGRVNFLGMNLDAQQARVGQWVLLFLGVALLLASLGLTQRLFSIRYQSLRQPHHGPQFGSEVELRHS
Procedure: b) ACE-inhibitory activity
The ACE-inhibitory activity was evaluated according to the method reported in the literature by B. Holmquist et al., in Analytical Biochemistry 95, 540-548 (1979).
[…] of ACE (250 mU/ml purified by lung rabbit, EC 3.4.15.1 SIGMA) were preincubated with 50 μl of the compound of formula I or of the comparison compound in thermostated cuvettes at 37° C.
The reaction was started by adding furylacryloylphenylalanylglycylglycine 0.8 mM (FAPGG-SIGMA).
Contemporaneously, by using a Beckman DU-50 spectrophotometer provided with a program for calculating delta A/minutes and regression coefficients of the enzyme kinetics curves, the absorbance at 340 nm was recorded in continuo for 5 minutes.
The percentage of the enzyme inhibition in the preparations treated with the compounds of formula I or with the comparative compounds with respect to the untreated preparations was expressed as IC50 (nM) value.

[2] = biological target: T2, NEP (membranes from rat kidney cortex) (Rattus norvegicus, UniProt P07861); test: In vitro NEP-inhibitory activity in rat kidney cortex membranes ([3H][Leu5]-enkephaline substrate); type: biochemical, male Sprague-Dawley rats; conditions: for IC50: 20 minutes at 30° C., [3H][Leu5]-enkephaline 15 nM
T2 construct: from tissue; host or cells: kidney cortex membranes of male Sprague-Dawley rats
T2 sequence (P07861 1-750): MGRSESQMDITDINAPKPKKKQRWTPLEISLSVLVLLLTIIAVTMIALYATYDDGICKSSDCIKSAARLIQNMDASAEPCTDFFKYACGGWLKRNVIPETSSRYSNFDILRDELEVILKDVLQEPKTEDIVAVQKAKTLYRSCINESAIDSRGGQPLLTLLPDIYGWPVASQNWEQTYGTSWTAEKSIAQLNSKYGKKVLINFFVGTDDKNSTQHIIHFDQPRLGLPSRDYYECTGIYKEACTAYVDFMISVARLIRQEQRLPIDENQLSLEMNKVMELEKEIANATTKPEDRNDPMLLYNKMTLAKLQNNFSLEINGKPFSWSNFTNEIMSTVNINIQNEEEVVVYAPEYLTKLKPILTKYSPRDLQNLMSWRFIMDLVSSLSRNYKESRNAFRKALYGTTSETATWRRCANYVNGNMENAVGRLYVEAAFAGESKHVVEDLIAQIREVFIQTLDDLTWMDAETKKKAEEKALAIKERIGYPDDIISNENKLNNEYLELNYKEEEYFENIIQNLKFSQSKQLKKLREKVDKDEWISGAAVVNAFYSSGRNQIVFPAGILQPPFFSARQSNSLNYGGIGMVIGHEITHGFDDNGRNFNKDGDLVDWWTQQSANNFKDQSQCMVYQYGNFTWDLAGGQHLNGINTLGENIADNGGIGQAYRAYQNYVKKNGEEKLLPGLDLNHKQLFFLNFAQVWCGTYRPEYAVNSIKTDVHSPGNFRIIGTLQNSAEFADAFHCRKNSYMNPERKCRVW
Procedure: a) NEP-inhibitory activity
The NEP-inhibitory activity was evaluated in membranes from rat kidney cortex prepared according to the procedure described by T. Maeda et al. in Biochim. Biophys. Acta 1983, 731(1), 115-120.
By working at 0°-4° C., kidneys were removed from male Sprague-Dawley rats weighing approximately 300 g.
Cortex was carefully dissected, finely minced and suspended in a homogenization buffer (10 mM sodium phosphate pH 7.4 containing 1 mM MgCl2, 30 mM NaCl, 0.02% NaN3) 1:15 weight/volume.
The tissue was then homogenized for 30 seconds using an Ultra-Turrax homogenizer.
Approximately 10 ml of homogenate were layered over 10 ml of sucrose (41% weight/volume) and centrifuged at 31200 rpm for 30 minutes at 4° C. in a fixed angle rotor. The membranes were collected from the buffer/sucrose interface, washed twice with 50 mM TRIS/HCl buffer (pH 7.4) and resuspended into the same buffer for storage.
The membranes were stored in small aliquots at -80° C. until use.
The NEP-inhibitory activity was evaluated according to the method described by C. Llorens et al., in Eur. J. Pharmacol., 69, (1981), 113-116, as reported hereinafter.
Aliquots of the membrane suspension prepared as above described (concentration 5 μg/ml of proteins) were preincubated in the presence of an aminopeptidase inhibitory (Bestatin--1 mM) for 10 minutes at 30° C.
[^3 H][Leu^5 ]-enkephaline (15 nM) and buffer TRIS/HCl pH 7.4 (50 mM) were added in order to obtain a final volume of 100 μl.
Incubation (20 minutes at 30° C.) was stopped by adding HCl 0.1M (100 μl).
The formation of the metabolite [^3 H]Tyr-Gly-Gly was quantified by chromatography on polystyrene columns (Porapak Q).

ACE/NEP = test: Ex vivo mixed/dual ACE/NEP-inhibitory activity (lung and kidney of SHR taken together); type: in vivo, spontaneously hypertensive rats (SHR); conditions: intravenous or oral
Procedure: The ex vivo ACE/NEP-inhibitory activity of the compounds of formula I, in particular, was evaluated by considering the enzymatic activity in tissue homogenates (lung and kidney for the ACE- and NEP-inhibitory activity, respectively) from spontaneously hypertensive rats (SHR), treated with the tested compounds by intravenous or oral route.
The inhibitory activity of the compounds of formula I was evaluated in kidneys of spontaneously hypertensive rats (SHR), 5 minutes after i.v. injection (0.6, 0.64 and 21 μmoles/kg) and 30 minutes, 60 minutes and 4 hours after oral administration (30 μmoles/kg) of the tested compounds.
The inhibitory activity of the compounds of formula I was evaluated in lungs of spontaneously hypertensive rats (SHR), 5 minutes after i.v. injection (0.6, 0.64 and 21 μmoles/kg) and 30 minutes, 60 minutes and 4 hours after oral administration (30 μmoles/kg) of the tested compounds.
As an example, the percentages of basal enzymatic activity obtained in the ex vivo tests after the administration of compounds 29 and 41, as representative compounds of formula I, and of the comparison compounds R-1, R-2, R-3 and R-4 are reported in the following table 2.

SMILES	IC50 [1] [nM]	IC50 [2] [nM]	inhibition at 0.1 µM ([2]; read-out: NEP-inhibitory activity % inhibition (10^-7 M), concentration 10^-7 M) [%]	NEP-inhibitory activity % inhibition (10^-7 M) ([2]; concentration 10^-7 M) [%]	ex-vivo mixed/dual ACE/NEP-inhibitory activity, in words (ACE/NEP)
COc1cccc(CC(CS)C(=O)N[C@@H](Cc2ccc(-c3ccccc3)cc2)C(=O)O)c1 (single isomer, unassigned) [compound 42, N-[2-mercaptomethyl-3-(3-methoxyphenyl)propionyl]-(1,1'-biphenyl-4-yl)-L-alanine]	7.5	16			
O=C(N[C@@H](Cc1ccc(-c2ccccc2)cc1)C(=O)O)C(CS)Cc1cccnc1 (single isomer, unassigned) [compound 50, N-[2-mercaptomethyl-3-(3-pyridyl)propionyl]-(1,1'-biphenyl-4-yl)-L-alanine hydrochloride]	13	2.9			
O=C(N[C@@H](Cc1ccc(-c2ccccc2)cc1)C(=O)O)C(CS)Cc1cccnc1 (single isomer, unassigned) [compound 51, N-[2-mercaptomethyl-3-(3-pyridyl)propionyl]-(1,1'-biphenyl-4-yl)-L-alanine hydrochloride]	2	13			
Cc1cc(CC(CS)C(=O)N[C@@H](Cc2ccc(-c3ccccc3)cc2)C(=O)O)on1 (single isomer, unassigned) [compound 53, N-[2-mercaptomethyl-3-(3-methyl-5-isoxazolyl)propionyl]-(1,1'-biphenyl-4-yl)-L-alanine]	13		94		
Cc1cc(CC(CS)C(=O)N[C@@H](Cc2ccc(-c3ccccc3)cc2)C(=O)O)on1 (single isomer, unassigned) [compound 54, N-[2-mercaptomethyl-3-(3-methyl-5-isoxazolyl)propionyl]-(1,1'-biphenyl-4-yl)-L-alanine]	11			76	
CC(c1ccccc1)C(CS)C(=O)N[C@@H](C)C(=O)O (stereo partly drawn) [RB 105, N-[2-(mercaptomethyl)-3-phenylbutanoyl]-L-alanine, reference compound]	5	24			not confirmed by ex-vivo tests
O=C(N[C@@H](Cc1ccc(-c2ccccc2)cc1)C(=O)O)[C@@H](CS)Cc1ccccc1 [compound 46, N-[(2S)-2-mercaptomethyl-3-phenylpropionyl]-(1,1'-biphenyl-4-yl)-L-alanine]	2.6	1.8			
O=C(N[C@@H](Cc1ccc(-c2ccccc2)cc1)C(=O)O)[C@H](CS)Cc1ccccc1 [compound 47, N-[(2R)-2-mercaptomethyl-3-phenylpropionyl]-(1,1'-biphenyl-4-yl)-L-alanine]	25.3	6.1			
CC(C)C(CS)C(=O)N[C@@H](Cc1ccc(-c2ccccc2)cc1)C(=O)O (stereo partly drawn) [compound 49, N-(2-isopropyl-3-mercaptopropionyl)-(1,1'-biphenyl-4-yl)-L-alanine]	3.8	1.2			
O=C(N[C@@H](Cc1ccc(-c2ccccc2)cc1)C(=O)O)C(CS)Cc1ccco1 (stereo partly drawn) [compound 52, N-[3-(2-furyl)-2-(mercaptomethyl)propionyl]-(1,1'-biphenyl-4-yl)-L-alanine]	6	3.7			
